Read-outs that look alike come from different tables or passages of the source. Marks after values point to notes of the source that are not given here.
Key:
MDA-MB-435 GFP FL cells = assay: Tumor growth of MDA-MB-435 GFP FL breast cancer cells in nude mice; assay type: in vivo, Nu/Nu athymic nude mice; conditions: day 35; α-TEA in liposome via aerosol; MSC 3ppm in water by gavage
Procedure: Animals were given a total of 8 mg compound per day. […] Alpha-TEA liposome gavage reduced tumor growth by 68, 75, 78, 79 and 79% on days 27, 29, 31, 33, and 35, respectively (Fig. 15).
Animals were gavaged 3ppm methylselenocysteine (MSC) in water, α-TEA in liposome via aerosol, or gavaged 10 mg/kg b.w. trans-resveratrol (t-RES) in first 1:1, EtOH: physiological saline, and starting at day 24, 6.5% EtOH and 93.5% Neobee oil. A combination group was treated with each of the above three compounds, and a control group was treated with aerosolized liposome, 100 µl water, and 50 µl of the t-Res solvent. Animals were treated seven days a week, for 35+ days.

66 cl.4-GFP cells [1] = assay: Visible lung metastases of 66 cl.4-GFP tumors in Balb/c mice; assay type: in vivo; design: Inhibition (%) of visible lung metastases: concentration or dose not given beside the values; conditions: liposomal formulations by aerosol; for Visible lung metastases/animal: 36 µg per animal per day, 19 or 21 days; for Inhibition (%) of visible lung metastases: versus control
Excerpt: (§1) Metastastic lesions in the five lung lobes were counted visually at time of sacrifice. Fluorescent green micro-metastatic cancer cell colonies in the left lung lobe and lymph nodes were counted using a Nikon fluorescence microscope (TE-200) with a 20 x objective (200 x magnification) and Image-Pro Plus (version 4.1; Media Cybernetics, Silver Spring, MD) software associated with the microscope. Fluorescent lesions were separated into three size grouping: <5 µm , 5-10 µm and >10 µm.

[2] = after thirty minutes, cited from earlier work
66 cl.4-GFP cells [3] = assay: Tumor growth of 66 cl.4-GFP mammary tumor cells implanted in Balb/c mice; conditions: for tumor growth, determined by tumor volume, versus controls: liposomal preparations delivered by aerosol, 36 µg per animal per day; for reduced tumor growth: liposome aerosol, 36 µg compound per day
Procedure: 66 cl.4-GFP cells were harvested by trypsinization, centrifuged, resuspended in McCoy's media, containing no supplements at a density of 2 X 10^5/100µl. Mice were injected in the inguinal area at a point equal distance between the 4th and 5th nipples on the right side using a 23 gauge needle.
50 mice were assigned (10 per group) to aerosol treatment, aerosol control, oral treatment, oral control, or to the no treatment group so that the average tumor volume for all groups were closely matched. […] Tumors were measured using calipers every other day, and volumes were calculated using the formula: volume (mm^3) = [width (mm)^2 X length (mm)] /2. Body weights were determined weekly.
Balb/c mice were injected with 200,000 66 cl.4 GFP cells subcutaneous in the mammary fat pad area between the 4th and 5th nipple on the right side of the body.
Mice are injected with 200,000 66cl.4 GFP murine mammary tumor cells as described on day 0. Treatments are initiated on day 9 when tumors reached 1-3 mm in size. […] Data represent the mean +/- Standard Error (SE), N = 10 mice for control and treatment groups.
Balb/c mice were injected s. c. with 2 X 10^5 66 cl.4-GFP cells in the inguinal area between the 4th and 5th nipple on the right side of the body. When tumors reached 2 x 2-4 x 4 mm (9 days after tumor injection), mice were placed into 5 groups ((Group 1: untreated control, Group 2: liposome/aerosol control, Group 3: liposomal α-TEA aerosol treatment, Group 4: peanut oil/gavage control, Group 5: α-TEA in peanut oil/gavage treatment) of 10 mice/group) such that the mean tumor volume of each group was closely matched. Daily treatments were initiated on day 9 after tumor injection.
Balb/c mice were injected with 200,000 66 cl.4 GFP cells subcutaneous in the mammary fat pad area between the 4th and 5th nipple on the right side of the body. […] Animals were treated with α-TEA in liposome, vitamin E succinate in liposome, or control liposome alone via aerosol, 7 days per week, for 21 days. Animals were given 75 mg compound via nebulization per day such that each animal received 36 µg compound per day.
The size of the tumors, 9 - 21 days after injection of 200,000 66 cl.4 GFP cells between the 4th and 5th nipple on the right side of each mouse, is determined. Treatments are initiated on day 9 after tumor inoculation. Each group consists of n=10 +/- SE. Gavage Treatment = Treatments of 5 mg of α-TEA in ethanol and peanut oil (0.1 ml volume) are administered daily starting on day 9 after tumor inoculation and continuing through day 21. Gavage Control = Mice received peanut oil and ethanol alone (0.ml volume)/daily, starting on day 9 after tumor inoculation and continuing through day 21. Data (tumor size) are depicted as the mean +/- standard error for days 9, 11, 13, 15, 17, 19, and 21.
Balb/c mice were injected with 200,000 66 cl.4 GFP cells subcutaneous in the mammary fat pad area between the 4th and 5th nipple on the right side of the body. […] Animals were treated with α-TEA in liposome, vitamin E succinate in liposome, or control liposome alone via oral gavage, 2 times per day, 7 days per week, for 21 days. Animals were given a total of 6 mg compound per day.

66 cl.4-GFP cells [4] = assay: Fluorescent lung micrometastases of 66 cl.4-GFP tumors in Balb/c mice; assay type: in vivo
Excerpt: as §1
(§2) At sacrifice, the left lung lobe of each mouse of flash frozen and saves for detection of GFP expressing micrometatstic lesions via fluorescent microscopy.

66 cl.4-GFP cells [5] = assay: Fluorescent lymph node micrometastases of 66 cl.4-GFP tumors in Balb/c mice; assay type: in vivo
Excerpt: as §1, §2

66 cl.4-GFP cells [6] = assay: Apoptosis by morphological evaluation of DAPI-stained nuclei; assay type: cell-based, mouse; conditions: three days
66 cl.4-GFP tumors = assay: TUNEL assay for apoptosis in tumor sections in vivo; design: species or system Balb/c mice; conditions: for % Enhanement of TUNEL Positive Apopotic Cells/Area: liposomal formulation by aerosol, versus control
Excerpt: Deparaffinized sections (5 µm) of tumor tissue were used to assess apoptosis using reagents supplied in the ApopTag In Situ Apoptosis Detection kit (Intergen, Purchase, NY) according to the manufacturer's instructions. Nuclei that stained brown were scored as positive for apoptosis and those that stained blue were scored as negative. At least sixteen 400X microscopic fields were scored per tumor. Data are presented as the mean ± S. E number of apoptotic cells counted in three separate tumors from each group. Pictures of tumor tissue were taken at 1000X magnification.

CD31 = CD31 immunohistochemistry of tumor sections (tumor blood vessel numbers); assay type: in vivo, Balb/c mice; conditions: for % Reduction of CD31 Blood Vessel Nos/Area: liposomal formulation by aerosol, versus control
[7] = test system: proliferation biomarker KI-67; assay: KI-67 immunohistochemistry of tumor sections (cell proliferation); assay type: in vivo, Balb/c mice; conditions: for % Reduction of KI67: liposomal formulation by aerosol, versus control
[8] = aerosol liposome delivery, 30 min
[9] = Aerosol, in nebulizer per mouse: α-TEA 5 mg/d, 9NC 2 µg/d, combination 5 mg+2µg/d
[10] = liposomal formulation delivered by aerosol, tumor sections

C[Se]C[C@H](N)C(=O)O [MSC, methylselenocysteine, reference compound]
tumor volume decrease from the control (MDA-MB-435 GFP FL cells): 47.2%

CC(C)=CCC/C(C)=C/CC/C(C)=C/CC[C@]1(C)CCc2c(C)c(O)c(C)c(C)c2O1 [RRR-α-tocotrienol, RRR-alpha-tocotrienol]
Visible lung metastases/animal (66 cl.4-GFP cells [1]): 0.4 | Inhibition (%) of visible lung metastases (66 cl.4-GFP cells [1]): 77%

CC[C@@]1(O)C(=O)OCc2c1cc1n(c2=O)Cc2cc3c([N+](=O)[O-])cccc3nc2-1 [9-nitrocamptothecin]
Levels of 9-nitrocamptothecin in the brain [2, 8]: 61 ng/g | Levels of 9-nitrocamptothecin in the liver [2, 8]: 192 ng/g | Levels of 9-nitrocamptothecin in the lungs [2, 8]: 310 ng/g | Levels of 9-nitrocamptothecin in the liver ([2]; intramuscular delivery, 30 min): 136 ng/g | Levels of 9-nitrocamptothecin in the lungs ([2]; intramuscular delivery, 30 min): 2 to 4 ng/g | Levels of 9-nitrocamptothecin in the brain ([2]; intramuscular delivery): 0 ng/g | Inhibition (%) Tumor Growth (66 cl.4-GFP cells [3]; [9]): 58% | Inhibition (%) Metastases Lung (66 cl.4-GFP cells [4]; [9]): 55% | Inhibition (%) Metastases Lymphnode (66 cl.4-GFP cells [5]; [9]): 60%

Cc1c(O)cc2c(c1C)O[C@](C)(CCC[C@H](C)CCC[C@H](C)CCCC(C)C)CC2 [RRR-γ tocopherol, RRR-γ-tocopherol]
tumor growth, determined by tumor volume, versus controls (66 cl.4-GFP cells [3]): enhanced tumor growth | Visible lung metastases/animal (66 cl.4-GFP cells [1]): 1.15 | Inhibition (%) of visible lung metastases (66 cl.4-GFP cells [1]): 32%

CC(=O)Oc1c(C)c(C)c2c(c1C)CCC(C)(CCCC(C)CCCC(C)CCCC(C)C)O2 (racemic) [dl-α tocopherol acetate]
Visible lung metastases/animal (66 cl.4-GFP cells [1]): 0.3 | Inhibition (%) of visible lung metastases (66 cl.4-GFP cells [1]): 82%

Cc1c(C)c2c(c(C)c1OC(=O)CCC(=O)O)CC[C@@](C)(CCC[C@H](C)CCC[C@H](C)CCCC(C)C)O2 [vitamin E succinate, RRR-α-tocopheryl succinate, reference compound]
reduced tumor growth (66 cl.4-GFP cells [3]; 21 days, day 15): 76% | reduced tumor growth (66 cl.4-GFP cells [3]; 21 days, day 17): 76% | reduced tumor growth (66 cl.4-GFP cells [3]; 21 days, day 19): 69% | reduced tumor growth (66 cl.4-GFP cells [3]; 21 days, day 21): 68% | tumor growth versus control liposome (66 cl.4-GFP cells [3]; liposome gavage, 6 mg compound per day, 21 days): did not reduce tumor growth | effect on lung metastasis (66 cl.4-GFP cells [4]; liposomal formulation via gavage, 6 mg compound per day, 21 days): no effect on lung metastasis | apoptosis (66 cl.4-GFP cells [6]; 2.5 µg/ml): 3% | apoptosis (66 cl.4-GFP cells [6]; 5 µg/ml): 5% | apoptosis (66 cl.4-GFP cells [6]; 10 µg/ml): 16% | apoptosis (66 cl.4-GFP cells [6]; 20 µg/ml): 34% | effect on lymph node micrometastatic lesions (Fig. 14B) (66 cl.4-GFP cells [5]; liposome via gavage, 6 mg compound per day, 21 days): not effective in decreasing micrometastatic lung lesions

Cc1c(C)c2c(c(C)c1O)CCC(C)(CCCC(C)CCCC(C)CCCC(C)C)O2 (racemic) [dl-α-tocopherol, dl-alpha-tocopherol]
Visible lung metastases/animal (66 cl.4-GFP cells [1]): 0.1 | Inhibition (%) of visible lung metastases (66 cl.4-GFP cells [1]): 94** % | % Enhanement of TUNEL Positive Apopotic Cells/Area (66 cl.4-GFP tumors): 44% | % Enhanement of TUNEL Positive Apopotic Cells/Area (66 cl.4-GFP tumors; listed as dl-alpha-tocopherol): 44% | TUNEL Positive Apopotic Cells/Area (66 cl.4-GFP tumors; [10]): 2.5 | % Reduction of CD31 Blood Vessel Nos/Area (CD31): 51% | % Reduction of CD31 Blood Vessel Nos/Area (CD31; listed as dl-alpha-tocopherol): 51% | CD31 Blood Vessel Nos/Area (CD31; [10]): 112 | % Reduction of KI67 [7]: 33% | % Reduction of KI67 ([7]; listed as dl-alpha-tocopherol): 33% | KI67 Inhibition of Proliferation (%) [7, 10]: 40%

Cc1c(C)c2c(c(C)c1O)CC[C@@](C)(CCC[C@H](C)CCC[C@H](C)CCCC(C)C)O2 [RRR-α tocopherol, RRR-α-tocopherol]
tumor growth, determined by tumor volume, versus controls (66 cl.4-GFP cells [3]): enhanced tumor growth | Visible lung metastases/animal (66 cl.4-GFP cells [1]): 1.7 | Inhibition (%) of visible lung metastases (66 cl.4-GFP cells [1]): 0%

Cc1cc(O)cc2c1O[C@](C)(CCC[C@H](C)CCC[C@H](C)CCCC(C)C)CC2 [RRR-delta tocopherol, RRR-delta-tocopherol]
Visible lung metastases/animal (66 cl.4-GFP cells [1]): 0.3 | Inhibition (%) of visible lung metastases (66 cl.4-GFP cells [1]): 82%

— patent EP1463487B1, “LIPOSOMAL DELIVERY OF VITAMIN E BASED COMPOUNDS” (RESEARCH DEVELOPMENT FOUNDATION, priority 2001, dated 2003)
